According to ChEMBL document CHEMBL1158407, “Synthesis of conjugated spermine derivatives with 7-nitrobenzoxadiazole (NBD), rhodamine and bodipy as new fluorescent probes for the polyamine transport system” (2009):
Active and inactive are the calls of the source. The rule behind the calls is not given here.

Experiments:
CHO-MG = assay: Differential fluorescence intensity index, ratio of cellular uptake in Chinese hamster CHO cells expressing PTS to cellular uptake in PTS deficient […] CHO-MG cells at 1 uM after 2 hrs by microscopy and FACS analysis; format: functional
[1] = Cellular uptake in F14512 co-cultured human NAMALWA cells assessed as decrease in fluorescence at 0.1 uM after 2 hrs by FACS analysis relative to control; format: functional, cell-based; design: scale not given: the % may be the effect or the level left; details: NAMALVA
[2] = Cellular uptake in human NAMALWA cells assessed as fluorescence intensity at 1 uM after 2 hrs by FACS analysis relative to control; format: functional, cell-based; details: NAMALVA

Structure (SMILES) | fold change (FC) (CHO-MG; Cricetulus griseus) | Activity [1] | Flu intensity [2] | fold change (FC) (CHO-MG)
NCCCCNc1ccc([N+](=O)[O-])c2nonc12 | inactive | – | – | –
CN(C)S(=O)(=O)c1ccc(N2CCN(C(=O)CNCCCNCCCCNCCCN)CC2)c2nonc12 | – | inactive | 0 | –
O=[N+]([O-])c1ccc(N2CCNCC2)c2nonc12 | – | inactive | 1.1 | –
NCCCNCCCCN(CCCN)C(=S)Nc1ccc(-c2c3ccc(=O)cc-3oc3cc(O)ccc23)c(C(=O)O)c1 | – | inactive | 8.1 | –
CCC1=C(C)/C(=C(\c2ccc(NC(=O)CNCCCNCCCCNCCCN)cc2)c2c(C)c(CC)c(C)n2B(F)F)N=C1C | inactive | 50% | 839 | –
NCCCNCCCCNCCCNc1ccc(N)c2nonc12 | – | inactive | 0 | –
NCCCNCCCCNCCCNc1ccc([N+](=O)[O-])c2nonc12 | – | > 70% | 65 | 10
CNc1ccc([N+](=O)[O-])c2nonc12 | inactive | inactive | 0.5 | –
CCN(CC)c1ccc2c(-c3cccc(NC(=S)NCCCNCCCCNCCCN)c3C(=O)[O-])c3ccc(=[N+](CC)CC)cc-3oc2c1 | – | inactive | 15 | –
CCN(CC)c1ccc2c(-c3ccc(NC(=S)NCCCNCCCCNCCCN)cc3C(=O)[O-])c3ccc(=[N+](CC)CC)cc-3oc2c1 | – | inactive | – | –
CN(C)S(=O)(=O)c1ccc(NCCCNCCCCNCCCN)c2nonc12 | – | inactive | 0 | –
CCN(CC)c1ccc2c(-c3ccc(S(=O)(=O)[O-])cc3S(=O)(=O)NCCCNCCCCNCCCN)c3ccc(=[N+](CC)CC)cc-3oc2c1 | – | inactive | 1.3 | –
NCCCNCCCCNCCCNCC(=O)N1CCN(c2ccc([N+](=O)[O-])c3nonc23)CC1 | – | inactive | 2.9 | –
CCC1=C(C)/C(=C(\c2ccc(N)cc2)c2c(C)c(CC)c(C)n2B(F)F)N=C1C | – | 50% | 3180 | –
CCN(CC)c1ccc2c(-c3ccc(S(=O)(=O)NCCCNCCCCNCCCN)cc3S(=O)(=O)[O-])c3ccc(=[N+](CC)CC)cc-3oc2c1 | – | inactive | 2.9 | –
CCC1=C(C)/C(=C(\c2ccc([N+](=O)[O-])cc2)c2c(C)c(CC)c(C)n2B(F)F)N=C1C | – | 50% | 1390 | –
CN(CCCNCCCCNCCCN)c1ccc([N+](=O)[O-])c2nonc12 | – | > 70% | 56 | 10
NCCCNCCCCNCCCNC(=S)Nc1ccc(-c2c3ccc(=O)cc-3oc3cc(O)ccc23)c(C(=O)O)c1 | – | inactive | 7.9 | –
O=[N+]([O-])c1ccc(NCCCNCCCCNCCCNc2ccc([N+](=O)[O-])c3nonc23)c2nonc12 | inactive | inactive | 627 | –
